From article PMC8366290, “Efficacy of a Novel Bi-Steric mTORC1 Inhibitor in Models of B-Cell Acute Lymphoblastic Leukemia” (Frontiers in Oncology, 2021)

Target: T1, mTOR (mTORC1) (Homo sapiens, UniProt P42345)
T1 construct: with raptor (mTORC1 complex)
Assay: MSD electrochemiluminescent assay of p4E-BP1 T37/T46 in SUP-B15 cells, with immunoblot
Format: cell-based

CO[C@H]1C[C@@H]2CC[C@@H](C)[C@@](O)(O2)C(=O)C(=O)N2CCCC[C@H]2C(=O)O[C@H]([C@H](C)C[C@@H]2CC[C@@H](OCCCCc3cn(CCOCCOCCOCCOCCOCCOCCOCCOCCC(=O)NCCCCn4nc(-c5cc6cc(O)ccc6[nH]5)c5c(N)ncnc54)nn3)[C@H](OC)C2)CC(=O)[C@H](C)/C=C(\C)[C@@H](O)[C@@H](OC)C(=O)[C@H](C)C[C@H](C)/C=C/C=C/C=C/1C [RMC-4627]
EC50: 2 nM
